# Data reported in US20080248511A1, “METHODS TO QUENCH LIGHT FROM OPTICAL REACTIONS” (priority 2007, published 2008).
# Assays:
# Renilla luciferase = target: T1, Renilla luciferase (Renilla reniformis, UniProt P27652); assay: Non-detergent compound screen, Renilla luciferase (Example 6); assay type: biochemical; conditions: for remaining activity at 10 µM / remaining activity at 100 µM / remaining activity at 1000 µM / remaining activity at 23 µM / remaining activity at 153 µM: 0.5% Tergitol NP-9, 0.03% BDDABr, read-out: Retained Renilla Luciferase Value (%)
# T1 sequence (P27652 1-311): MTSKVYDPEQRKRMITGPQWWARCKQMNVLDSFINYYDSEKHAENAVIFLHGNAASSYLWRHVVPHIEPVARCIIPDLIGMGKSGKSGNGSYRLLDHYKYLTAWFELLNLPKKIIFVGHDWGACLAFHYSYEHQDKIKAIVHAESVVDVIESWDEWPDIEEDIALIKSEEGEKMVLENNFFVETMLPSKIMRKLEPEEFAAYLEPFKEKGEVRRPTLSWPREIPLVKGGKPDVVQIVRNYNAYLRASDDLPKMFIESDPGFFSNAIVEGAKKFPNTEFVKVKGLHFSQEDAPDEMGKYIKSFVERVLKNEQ
# Description: (§1) Each compound was diluted into 200 mM MOPS pH 6.7, 4 μM MgSO4, 1 mM CDTA, 0.5% Tergitol NP-9, 0.05% Mazu-DF-204, 0.03% BDDABr, 30 mM thiourea, 1 mM bis-(2-mercaptoethylsulfone) (BMS), 4 μM CoA, and 1 μM 5-fluoroluciferin. Just prior to the luciferase reaction, 0.1% Prionex® (Pentapharm) and 2.9 μM coelenterazine-h (Promega) were added to each solution.
# (§2) The firefly luciferase and Renilla luciferase enzymes were diluted as described in Examples 3 and 5. The luciferase reactions were initiated by adding 50 μl of the firefly luciferase and Renilla luciferase enzyme solution to 50 μl of reagent solution. The reactions were performed as described above. The retained Renilla and firefly luciferase-mediated luminescence and selectivity values for each inhibitor tested are listed in Table 6.
# firefly luciferase = firefly luciferase (Photinus pyralis, UniProt P08659); assay: Non-detergent compound screen, firefly luciferase (Example 6); assay type: biochemical; conditions: 0.5% Tergitol NP-9, 0.03% BDDABr, read-out: Retained Firefly Luciferase Value (%); for remaining activity at 10 µM: inhibitor 10 μM; for remaining activity at 100 µM: inhibitor 100 μM; for remaining activity at 1000 µM: inhibitor 1000 μM; for remaining activity at 23 µM: inhibitor 23 μM; for remaining activity at 153 µM: inhibitor 153 μM
# Description: as §1, §2
# Chain of firefly luciferase (P08659 whole entry): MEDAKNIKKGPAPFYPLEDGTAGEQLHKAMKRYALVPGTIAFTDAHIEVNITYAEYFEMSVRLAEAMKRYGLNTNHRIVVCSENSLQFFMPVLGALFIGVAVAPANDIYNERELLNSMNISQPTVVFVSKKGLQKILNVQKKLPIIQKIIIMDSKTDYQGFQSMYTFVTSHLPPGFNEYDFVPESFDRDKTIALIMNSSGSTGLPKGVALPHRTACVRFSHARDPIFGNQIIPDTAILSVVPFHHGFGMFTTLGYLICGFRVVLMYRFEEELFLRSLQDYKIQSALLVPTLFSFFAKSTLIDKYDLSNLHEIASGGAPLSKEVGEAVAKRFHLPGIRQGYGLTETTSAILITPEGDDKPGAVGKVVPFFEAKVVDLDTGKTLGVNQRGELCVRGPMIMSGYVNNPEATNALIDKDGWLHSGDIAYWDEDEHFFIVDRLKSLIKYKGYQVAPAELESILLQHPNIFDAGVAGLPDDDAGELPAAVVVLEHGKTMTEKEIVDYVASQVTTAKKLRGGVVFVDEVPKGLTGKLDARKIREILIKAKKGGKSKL
SMILES,"inhibitor of Renilla luciferase, grade in words (Renilla luciferase)",Selectivity Value (Renilla luciferase; inhibitor 10 μM),remaining activity at 10 µM (Renilla luciferase; inhibitor 10 μM),Selectivity Value (Renilla luciferase; inhibitor 100 μM),remaining activity at 100 µM (Renilla luciferase; inhibitor 100 μM),Selectivity Value (Renilla luciferase; inhibitor 1000 μM),remaining activity at 1000 µM (Renilla luciferase; inhibitor 1000 μM),remaining activity at 10 µM (firefly luciferase),remaining activity at 100 µM (firefly luciferase),remaining activity at 1000 µM (firefly luciferase),Selectivity Value (Renilla luciferase; inhibitor 23 μM),remaining activity at 23 µM (Renilla luciferase; inhibitor 23 μM),Selectivity Value (Renilla luciferase; inhibitor 153 μM),remaining activity at 153 µM (Renilla luciferase; inhibitor 153 μM),remaining activity at 23 µM (firefly luciferase),remaining activity at 153 µM (firefly luciferase)
"COc1ccc(CNC(=O)/C=C/c2ccc3c(ccc[n+]3C)c2)cc1.[I-] [Compound 3061, (E)-6-(3-(4-methoxybenzylamino)-3-oxoprop-1-enyl)-1-methylquinolinium iodide]",inhibitors of Renilla luciferase,1.1,96%,1.8,85%,2.3,36%,103%,100%,82%,–,–,–,–,–,–
"COc1ccc(CNC(=O)/C=C/c2ccc3ncccc3c2)cc1 [Compound 3046, (E)-N-(4-methoxybenzyl)-3-(quinolin-6-yl)acrylamide]",inhibitors of Renilla luciferase,1.0,96%,1.3,78%,3.4,24.5%,100%,99%,83%,–,–,–,–,–,–
"C=C(C(=O)NCc1ccc(OC)cc1)c1ccc2ncccc2c1 [Compound 3053, N-(4-methoxybenzyl)-2-(quinolin-6-yl)acrylamide]",suitable inhibitors of Renilla luciferase,–,–,–,–,1.1,84.7%,–,–,91%,1.1,95%,1.1,90%,100%,97%
"COc1ccc(CNC(=O)/C=C/c2ccc3[nH]cc(CN(C)C)c3c2)cc1 [Compound 3067, (E)-3-(3-((dimethylamino)methyl)-1H-indol-5-yl)-N-(4-methoxybenzyl)acrylamide]",excellent inhibitors of Renilla luciferase,1.3,79%,2.9,34%,14.3,7%,100%,99%,100%,–,–,–,–,–,–
"CN(C)CCc1c[nH]c2ccc(/C=C/C(=O)N3CCOCC3)cc12 [Compound 3064, (E)-3-(3-(2-(dimethylamino)ethyl)-1H-indol-5-yl)-1-morpholinoprop-2-en-1-one]",excellent inhibitors of Renilla luciferase,1.3,81%,2.9,35%,11.4,9%,102%,101%,103%,–,–,–,–,–,–
"COc1ccc(COC(=O)/C=C/c2ccc3[nH]cc(CCN(C)C)c3c2)cc1 [Compound 3045, (E)-4-methoxybenzyl 3-(3-(2-(dimethylamino)ethyl)-1H-indol-5-yl)acrylate]",suitable inhibitors of Renilla luciferase,–,–,–,–,1.3,74.7%,–,–,98%,1.0,97%,1.0,98%,100%,100%
"CN(C)CCc1c[nH]c2ccc(/C=C/C(=O)NCc3ccc(N(C)C)cc3)cc12 [Compound 3043, (E)-N-(4-(dimethylamino)benzyl)-3-(3-(2-(dimethylamino)ethyl)-1H-indol-5-yl)acrylamide]",excellent inhibitors of Renilla luciferase,–,–,–,–,–,–,–,–,–,–,–,–,–,–,–
